In patent US12570666B2, “Furoindazole derivatives” (Bayer Aktiengesellschaft, priority 2019, dated 2026):

Biological target: T1, human GPR84 receptor (Homo sapiens, UniProt Q9NQS5)
T1 construct: frozen aliquots prepared by acCELLerate; host or cells: CHO-K1
Experiment: cAMP HTRF assay for identification of cellular GPR84 antagonists
Assay type: cell-based
Details: CHO-K1 cells stably expressing human GPR84; Forskolin + agonist 6-OAU (EC80); average or median values
Method in brief: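 Forskolin-stimulated CHO-K1 cells stably expressing human GPR84, agonist-suppressed cAMP measured by HTRF (665/620 ratio) after lysis. Compounds at 11 concentrations, 20 μM to 0.07 nM, duplicate; normalized to DMSO and no-agonist controls; IC50 by 4-parameter fit.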

T1 sequence (Q9NQS5 whole entry): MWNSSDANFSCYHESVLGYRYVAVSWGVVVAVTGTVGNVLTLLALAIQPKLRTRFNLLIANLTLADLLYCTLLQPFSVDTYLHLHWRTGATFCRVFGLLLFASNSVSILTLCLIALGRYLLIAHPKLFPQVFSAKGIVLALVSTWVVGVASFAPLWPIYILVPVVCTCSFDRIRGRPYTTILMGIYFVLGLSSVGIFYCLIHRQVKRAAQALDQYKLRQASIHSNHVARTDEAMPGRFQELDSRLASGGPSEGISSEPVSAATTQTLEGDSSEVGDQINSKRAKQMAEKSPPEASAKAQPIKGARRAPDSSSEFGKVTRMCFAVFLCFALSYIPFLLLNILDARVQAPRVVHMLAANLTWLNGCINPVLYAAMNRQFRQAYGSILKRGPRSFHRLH

| SMILES | IC50 |
| --- | --- |
| Cc1c(C(=O)NC[C@@H]2CCCO2)oc2c1-c1nn(C[C@H]3COCCO3)cc1C1(CC1)C2 [Example 125, 2′-[(2S)-1,4-dioxan-2-ylmethyl]-8′-methyl-N-[(2S)-tetrahydrofuran-2-ylmethyl]-2′,5′-dihydrospiro[cyclopropane-1,4′-furo[2,3-g]indazole]-7′-carboxamide] | 51 nM |
| C[C@@H]1Cc2oc(C(=O)NC[C@@H]3CCCO3)c(C(F)(F)F)c2-c2nn(C[C@H]3COCCO3)cc21 (single isomer, unassigned) [Example 255-1, (4R or 4S)-2-{[(2S)-1,4-dioxan-2-yl]methyl}-4-methyl-N-{[(2S)-oxolan-2-yl]methyl}-8-(trifluoromethyl)-4,5-dihydro-2H-furo[2,3-g]indazole-7-carboxamide] | 3 nM |
| Cn1ccc(CNC(=O)c2oc3c(c2C(F)(F)F)-c2nn(Cc4ccccn4)cc2CC3)n1 [Example 117, N-[(1-methyl-1H-pyrazol-3-yl)methyl]-2-(pyridin-2-ylmethyl)-8-(trifluoromethyl)-4,5-dihydro-2H-furo[2,3-g]indazole-7-carboxamide] | 55 nM |
| CC(=O)N1CCC(Cn2cc3c(n2)-c2c(oc(C(=O)NC[C@@H]4COCCO4)c2C(F)(F)F)C[C@H]3C)CC1 (single isomer, unassigned) [Example 294, (4R or 4S)-2-[(1-acetylpiperidin-4-yl)methyl]-N-{[(2R)-1,4-dioxan-2-yl]methyl}-4-methyl-8-(trifluoromethyl)-4,5-dihydro-2H-furo[2,3-g]indazole-7-carboxamide] | 8 nM |
| Cc1nonc1CNC(=O)c1oc2c(c1C)-c1nn(Cc3ccccn3)cc1CC2 [Example 15, 8-methyl-N-[(4-methyl-1,2,5-oxadiazol-3-yl)methyl]-2-(pyridin-2-ylmethyl)-4,5-dihydro-2H-furo[2,3-g]indazole-7-carboxamide] | 2000 nM |
| CC(=O)N1CCC(Cn2cc3c(n2)-c2c(oc(C(=O)NC[C@@H]4CCCO4)c2C(F)(F)F)C[C@H]3C)CC1 (single isomer, unassigned) [Example 292, (4R or 4S)-2-[(1-acetylpiperidin-4-yl)methyl]-4-methyl-N-{[(2S)-oxolan-2-yl]methyl}-8-(trifluoromethyl)-4,5-dihydro-2H-furo[2,3-g]indazole-7-carboxamide] | 6 nM |
| C[C@@H]1Cc2oc(C(=O)NC[C@@H]3CCCO3)c(C(F)(F)F)c2-c2nn(CC3CCN(C(=O)C4(C)CC4)CC3)cc21 (single isomer, unassigned) [Example 298, (4R or 4S)-4-methyl-2-{[1-(1-methylcyclopropane-1-carbonyl)piperidin-4-yl]methyl}-N-{[(2S)-oxolan-2-yl]methyl}-8-(trifluoromethyl)-4,5-dihydro-2H-furo[2,3-g]indazole-7-carboxamide] | 9 nM |
| CC1COC(CNC(=O)c2oc3c(c2C(F)(F)F)-c2nn(C[C@H]4COCCO4)cc2[C@H](C)C3)C1 (single isomer, unassigned) [Example 313, 2,5-anhydro-1,3,4-trideoxy-1-{[(4R or 4S)-2-{[(2S)-1,4-dioxan-2-yl]methyl}-4-methyl-8-(trifluoromethyl)-4,5-dihydro-2H-furo[2,3-g]indazole-7-carbonyl]amino}-4-methylpentitol] | 21 nM |
| CCOc1cnc(Cn2cc3c(n2)-c2c(oc(C(=O)NC[C@@H]4CCCO4)c2C)CC3)c(Cl)c1 [Example 59, 2-[(3-chloro-5-ethoxypyridin-2-yl)methyl]-8-methyl-N-[(2S)-tetrahydrofuran-2-ylmethyl]-4,5-dihydro-2H-furo[2,3-g]indazole-7-carboxamide] | 70 nM |
| Cc1c(C(=O)NC[C@H]2COCCO2)oc2c1-c1nn(C[C@H]3COCCO3)cc1C1(CCC1)C2 [Example 144, N,2′-bis[(2S)-1,4-dioxan-2-ylmethyl]-8′-methyl-2′,5′-dihydrospiro[cyclobutane-1,4′-furo[2,3-g]indazole]-7′-carboxamide] | 7390 nM |
| C[C@@H]1Cc2oc(C(=O)NC[C@@H]3CCCO3)c(C(F)(F)F)c2-c2nn(CC3CCN(C(=O)C4(O)CC4)CC3)cc21 (single isomer, unassigned) [Example 293, (4R or 4S)-2-{[1-(1-hydroxycyclopropane-1-carbonyl)piperidin-4-yl]methyl}-4-methyl-N-{[(2S)-oxolan-2-yl]methyl}-8-(trifluoromethyl)-4,5-dihydro-2H-furo[2,3-g]indazole-7-carboxamide] | 7 nM |
| C[C@@H]1Cc2oc(C(=O)NCc3cnc(C4CC4)cn3)c(C(F)(F)F)c2-c2nn(C[C@H]3COCCO3)cc21 (single isomer, unassigned) [Example 322, (4R or 4S)—N-[(5-cyclopropylpyrazin-2-yl)methyl]-2-{[(2S)-1,4-dioxan-2-yl]methyl}-4-methyl-8-(trifluoromethyl)-4,5-dihydro-2H-furo[2,3-g]indazole-7-carboxamide] | 2 nM |
| O=C(NCc1cocn1)c1oc2c(c1C(F)(F)F)-c1nn(C[C@H]3COCCO3)cc1CC2 [Example 239, 2-[(2S)-1,4-Dioxan-2-ylmethyl]-N-(1,3-oxazol-4-ylmethyl)-8-(trifluormethyl)-4,5-dihydro-2H-furo[2,3-g]indazol-7-carboxamide] | 136 nM |
| O=C(NC[C@@H]1COCCO1)c1oc2c(c1C(F)(F)F)-c1nn(CC3CCOCC3)cc1CC2 [Example 242, N-{[(2R)-1,4-dioxan-2-yl]methyl}-2-[(oxan-4-yl)methyl]-8-(trifluoromethyl)-4,5-dihydro-2H-furo[2,3-g]indazole-7-carboxamide] | 29 nM |
| Cc1c(C(=O)NC[C@@H]2CCCO2)oc2c1-c1nn(Cc3cncnc3)cc1CC2 [Example 85, 8-methyl-2-(pyrimidin-5-ylmethyl)-N-[(2S)-tetrahydrofuran-2-ylmethyl]-4,5-dihydro-2H-furo[2,3-g]indazole-7-carboxamide] | 260 nM |
| Cc1c(C(=O)NC[C@H]2COCCO2)oc2c1-c1nn(CC3CC3)cc1C1(CC1)C2 [Example 130, 2′-(cyclopropylmethyl)-N-[(2S)-1,4-dioxan-2-ylmethyl]-8′-methyl-2′,5′-dihydrospiro[cyclopropane-1,4′-furo[2,3-g]indazole]-7′-carboxamide] | 1290 nM |
| Cc1c(C(=O)NC[C@@H]2COCCO2)oc2c1-c1nn(C[C@H]3COCCO3)cc1C1(CCC1)C2 [Example 145] | 110 nM |
| Cc1ccc(Cn2cc3c(n2)-c2c(oc(C(=O)NC[C@@H]4CCCO4)c2C(F)(F)F)CC3)cn1 [Example 192] | 6 nM |
| Cc1c(C(=O)NC[C@@H]2CCCO2)oc2c1-c1nn(Cc3ncc(F)cc3Cl)cc1CC2 [Example 58, 2-[(3-chloro-5-fluoropyridin-2-yl)methyl]-8-methyl-N-[(2S)-tetrahydrofuran-2-ylmethyl]-4,5-dihydro-2H-furo[2,3-g]indazole-7-carboxamide] | 240 nM |
| Cc1c(C(=O)NC[C@@H]2CCCO2)oc2c1-c1nn(CCN3CCN(C(=O)OC(C)(C)C)CC3)cc1CC2 [Example 141, tert-butyl 4-[2-(8-methyl-7-{[(2S)-tetrahydrofuran-2-ylmethyl]carbamoyl}-4,5-dihydro-2H-furo[2,3-g]indazol-2-yl)ethyl]piperazine-1-carboxylate] | 700 nM |
| Cc1c(C(=O)NC[C@@H]2CCCO2)oc2c1-c1nn(Cc3cc(F)ccn3)cc1CC2 [Example 182] | 168 nM |
| Cc1ncccc1Cn1cc2c(n1)-c1c(oc(C(=O)NC[C@@H]3CCCO3)c1C)CC2 [Example 73, 8-methyl-2-[(2-methylpyridin-3-yl)methyl]-N-[(2S)-tetrahydrofuran-2-ylmethyl]-4,5-dihydro-2H-furo[2,3-g]indazole-7-carboxamide] | 140 nM |
| Cc1c(C(=O)NC[C@@H]2CCCO2)oc2c1-c1nn(C[C@H]3COCCO3)cc1C(C)C2 (mixture of isomers) [Example 249, (4±)-2-{[(2S)-1,4-dioxan-2-yl]methyl}-4,8-dimethyl-N-{[(2S)-oxolan-2-yllmethyl}-4,5-dihydro-2H-furo[2,3-g]indazole-7-carboxamide] | 122 nM |
| Cc1c(C(=O)NCCN2CCN(C)CC2)oc2c1-c1nn(Cc3ccccn3)cc1CC2 [Example 4, 8-methyl-N-[2-(4-methylpiperazin-1-yl)ethyl]-2-(pyridin-2-ylmethyl)-4,5-dihydro-2H-furo[2,3-g]indazole-7-carboxamide] | 1620 nM |
| Cc1cnc(CNC(=O)c2oc3c(c2C(F)(F)F)-c2nn(C[C@H]4COCCO4)cc2[C@H](C)C3)cn1 (single isomer, unassigned) [Example 258, (4R or 4S)-2-{[(2S)-1,4-dioxan-2-yl]methyl}-4-methyl-N-[(5-methylpyrazin-2-yl)methyl]-8-(trifluoromethyl)-4,5-dihydro-2H-furo[2,3-g]indazole-7-carboxamide] | 5 nM |
| Cc1cccc(Cn2cc3c(n2)-c2c(oc(C(=O)NCC4CCCO4)c2C)CC3)n1 (racemic) [Example 66, 8-methyl-2-[(6-methylpyridin-2-yl)methyl]-N-[(2R/S)-tetrahydrofuran-2-ylmethyl]-4,5-dihydro-2H-furo[2,3-g]indazole-7-carboxamide] | 160 nM |
| Cc1c(C(=O)NCC2CC(F)(F)CO2)oc2c1-c1nn(Cc3ccccn3)cc1CC2 (racemic) [Example 174] | 97 nM |
| Cc1c(C(=O)NC[C@@H]2COCCO2)oc2c1-c1nn(Cc3ncccn3)cc1CC2 [Example 84, N-[(2R)-1,4-dioxan-2-ylmethyl]-8-methyl-2-(pyrimidin-2-ylmethyl)-4,5-dihydro-2H-furo[2,3-g]indazole-7-carboxamide] | 180 nM |
| Cc1c(C(=O)NC[C@@H]2CCCO2)oc2c1-c1nn(Cc3noc(C4CC4)n3)cc1CC2 [Example 137, 2-[(5-cyclopropyl-1,2,4-oxadiazol-3-yl)methyl]-8-methyl-N-[(2S)-tetrahydrofuran-2-ylmethyl]-4,5-dihydro-2H-furo[2,3-g]indazole-7-carboxamide] | 45 nM |
